Results as given in ChEMBL document CHEMBL1140704, “Further structure-activity relationships study of hybrid 7-{[2-(4-phenylpiperazin-1-yl)ethyl]propylamino}-5,6,7,8-tetrahydronaphthalen-2-ol analogues: identification of a high-affinity D3-preferring agonist with potent in vivo activity with long duration of action” (J Med Chem, 2008).
Active and inactive are the calls of the source. The rule behind the calls is not given here.

What was measured:
[1] = target: T1, D(2) dopamine receptor (Homo sapiens, UniProt P14416); assay: biochemical
Description: Displacement of [3H]spiperone from human cloned dopamine D2L receptor expressed in HEK293 cells

[2] = target: T2, D(3) dopamine receptor (Homo sapiens, UniProt P35462); assay: biochemical
Description: Displacement of [3H]spiperone from human cloned dopamine D3 receptor expressed in HEK293 cells

[3] = target: T2, D(3) dopamine receptor
Description: Agonist activity at human cloned dopamine D3 receptor expressed in AtT-20 cells assessed as stimulation of [35S]GTP-gamma-S binding

[4] = target: T1, D(2) dopamine receptor; assay: Agonist activity at human cloned dopamine D2L receptor expressed in CHO cells assessed as stimulation of [35S]GTPgammaS binding; type: functional, cell-based
[5] = species: Homo sapiens; assay: Selectivity for human D3 receptor over human D2L receptor
[6] = tested on: Rattus norvegicus; assay: Effect on rotational activity in 6-OH-DA-Lesioned rat assessed as number of rotations at 2.51 mg/kg, ip; type: functional, organism-based; set-up: dose 2.51 mg/kg
[7] = tested on: Rattus norvegicus; assay: Effect on rotational activity in 6-OH-DA-Lesioned rat assessed as number of rotations at 0.53 mg/kg, ip after 9 hrs; type: functional; settings: route intraperitoneal
[8] = tested on: Rattus norvegicus; assay: Effect on rotational activity in 6-OH-DA-Lesioned rat assessed as number of rotations at 2.87 mg/kg, ip after 12 hrs; type: functional; settings: route intraperitoneal

T1 sequence (P14416 whole entry): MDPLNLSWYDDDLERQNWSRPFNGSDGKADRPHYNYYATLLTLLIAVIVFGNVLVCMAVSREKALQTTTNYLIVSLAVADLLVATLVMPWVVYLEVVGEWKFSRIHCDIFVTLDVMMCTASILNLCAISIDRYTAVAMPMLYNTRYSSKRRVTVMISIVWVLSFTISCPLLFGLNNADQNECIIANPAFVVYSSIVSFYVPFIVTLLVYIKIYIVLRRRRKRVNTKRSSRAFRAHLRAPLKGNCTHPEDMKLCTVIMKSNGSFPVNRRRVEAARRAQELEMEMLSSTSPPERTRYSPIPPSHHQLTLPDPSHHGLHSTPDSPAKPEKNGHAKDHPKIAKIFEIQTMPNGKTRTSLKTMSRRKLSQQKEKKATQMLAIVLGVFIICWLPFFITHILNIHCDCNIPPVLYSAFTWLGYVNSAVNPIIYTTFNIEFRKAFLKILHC
T2 sequence (P35462 whole entry): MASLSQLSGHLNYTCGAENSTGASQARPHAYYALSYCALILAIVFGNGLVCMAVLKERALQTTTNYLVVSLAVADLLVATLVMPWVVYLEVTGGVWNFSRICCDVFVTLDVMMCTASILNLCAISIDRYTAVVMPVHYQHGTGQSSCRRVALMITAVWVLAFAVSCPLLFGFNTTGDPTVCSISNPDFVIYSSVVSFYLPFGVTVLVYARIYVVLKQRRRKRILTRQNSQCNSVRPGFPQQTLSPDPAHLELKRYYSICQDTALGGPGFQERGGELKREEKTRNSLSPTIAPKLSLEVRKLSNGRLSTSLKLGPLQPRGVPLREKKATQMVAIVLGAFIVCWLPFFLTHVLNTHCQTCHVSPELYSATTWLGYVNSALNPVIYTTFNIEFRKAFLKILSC

Ki [1]	Ki [2]	Ratio Ki [5]	SMILES	other results
142 nM	1.56 nM	91	CCCN(CCN1CCN(c2ccccc2)CC1)C1CCc2ccc(O)cc2C1 (stereo not given)	Ratio EC50 [5]: 17.6; EC50 [3]: 0.69 nM; Activity [6]: Active; EC50 [4]: 12.2 nM
649 nM	11.2 nM	57.9	CCCN(CCN1CCN(c2ccccc2)CC1)C1CCc2cc(O)ccc2C1 (stereo not given)	
21.7 nM	2.89 nM	7.51	CCCN(CCCCN1CCN(c2ccccc2)CC1)C1CCc2cc(O)c(O)cc2C1 (stereo not given)	
19.4 nM	1.22 nM		CCCN(CCCCN1CCN(c2ccccc2)CC1)C1CCc2ccc(O)cc2C1 (stereo in doubt; (-)-13) [listing 1 of 2 here]	
		25.8	CCCN(CCCCN1CCN(c2ccccc2)CC1)C1CCc2ccc(O)cc2C1 (stereo in doubt; (+)-13) [listing 1 of 2 here]	
14.6 nM	0.45 nM	32.2	CCCN(CCN1CCN(c2cccc(Cl)c2Cl)CC1)C1CCc2c(O)cccc2C1 (racemic)	
638 nM	22.2 nM		CCCN(CCN1CCN(c2ccccc2)CC1)C1CCc2ccc(N)cc2C1 (stereo not given)	
70.3 nM	1.39 nM	50.6	CCCN(CCN1CCN(c2ccccc2)CC1)C1CCc2cc(O)c(O)cc2C1 (stereo not given)	
167 nM	10.3 nM	16.2	CCCN(CCCN1CCN(c2ccccc2)CC1)C1CCc2ccc(O)cc2C1 (stereo not given)	
			CCCN(CCN1CCN(c2ccccc2)CC1)C1CCc2c(O)cccc2C1 (stereo in doubt; (-)-25)	Activity [7]: 3609; Activity [8]: 4319
19.3 nM	0.74 nM		CCCN(CCCCN1CCN(c2ccccc2)CC1)C1CCc2ccc(O)cc2C1 (stereo in doubt; (+)-13) [listing 2 of 2 here]	
		15.9	CCCN(CCCCN1CCN(c2ccccc2)CC1)C1CCc2ccc(O)cc2C1 (stereo in doubt; (-)-13) [listing 2 of 2 here]	

SMILES	Ki [1]	Ki [2]	Ratio Ki [5]	other results
CCCN(CCN1CCN(c2ccccc2OC)CC1)C1CCc2c(O)cccc2C1 (single isomer, unassigned; (-)) [listing 1 of 2 here]	9.56 nM	0.46 nM		EC50 [3]: 0.08 nM; EC50 [4]: 1.56 nM
CCCN(CCN1CCN(c2ccccc2OC)CC1)C1CCc2c(O)cccc2C1 (racemic) [listing 1 of 2 here]			12.8	
Oc1ccc2c(c1)CC(N(CCc1cccs1)CCN1CCN(c3ccccc3)CC1)CC2 (stereo not given)	24.6 nM	23.9 nM	1.03	
CCCN(CCN1CCN(c2ccccc2OC)CC1)C1CCc2c(O)cccc2C1 (racemic) [listing 2 of 2 here]	35.8 nM	2.8 nM		
CCCN(CCN1CCN(c2ccccc2OC)CC1)C1CCc2c(O)cccc2C1 (single isomer, unassigned; (+)) [listing 1 of 2 here]	88.7 nM	18.8 nM		
CCCN(CCN1CCN(c2ccccc2OC)CC1)C1CCc2c(O)cccc2C1 (single isomer, unassigned; (-)) [listing 2 of 2 here]			20.9	Ratio EC50 [5]: 19.4
CCCN(CCN1CCN(c2ccccc2)CC1)C1CCc2ccc3c(c2C1)CC(=O)N3 (stereo not given)	90.6 nM	10.9 nM	8.27	
CCCN(CCN1CCN(c2ccccc2OC)CC1)C1CCc2c(O)cccc2C1 (single isomer, unassigned; (+)) [listing 2 of 2 here]			4.72	
